From patent US20240190883A1, “KRAS PROTEIN DEGRADERS, PHARMACEUTICAL COMPOSITIONS THEREOF, AND THEIR THERAPEUTIC APPLICATIONS” (BioTheryX, Inc., priority 2021, published 2024)
Like-named read-outs stand apart in the source and are kept apart here.

Experiments:
Type in all cases: cell-based
KRAS protein = target: T1, KRAS protein (Homo sapiens, UniProt P01116); assay: HIBIT degradation assay, HEK293 cells; conditions: compound at 3 μM, 24 h, HiBiT signal normalized to CTG signal
T1 construct: engineered to express a Hobbit-tagged endogenous KRAS protein; endogenous in cells; host or cells: HEK293, endogenous KRAS locus engineered with a HiBiT tag
Method: HEK293, MIA PaCa-2, AsPc-1, SW620, and H647 cells were engineered to express a […] endogenous KRAS protein. The HEK293 and MIA PaCa-2 cells were cultured in DMEM media supplemented with 10% fetal bovine serum, streptomycin, and penicillin. The AsPc-1, SW620, and H647 were cultured in RPMI media supplemented with 10% fetal bovine serum, streptomycin, and penicillin. The cells were seeded in white walled 96-well plates at 20,000 cells/well in 100 μL culture media in duplicate plates. After incubated at 37° C. under 5% CO2 overnight, the cells were treated with DMSO (control) or a compound, followed by the addition of 100 μL culture media to each well. After the cells were incubated for 24 h at 37° C. under 5% C02, 150 μL media were removed from each well and 50 μL NANOGLO-LGBIT lytic reagent were added to each well, and 50 μL CELLTITER-GLO (CTG) reagent was added to the duplicate plate. Following a 10-minute incubation with shaking, luminescence was measured using a Perkin Elmer ENVISION multimode plate reader. HiBiT signal was normalized to CTG signal. The results are summarized in Table 3, where “A” represents a percentage degradation value of no less than 50%; “B” represents a percentage degradation value of less than 50% and no less than 25%; “C” represents a percentage degradation value of less than 25% and no less than 10%; and “D” represents a percentage degradation value of less than 10%.

Molm-13 cells = assay: Cell viability assay, inhibition of Molm-13 cells; conditions: Homo sapiens; for inhibition at 1 µM: compound at 1 μM; for inhibition at 3 µM: compound at 3 μM
Method: [Worded in the source for another cell line; this cell line is reported under the same test.] (§1) H358, H23, SW48, and AsPC-1 cells were cultured in RPMI 1640 media supplemented with 10% fetal bovine serum, streptomycin, and penicillin. Lovo and SW480 cells were cultured in DMEM media supplemented with 10% fetal bovine serum, streptomycin, and penicillin. The cell lines were plated in their respective medium supplemented with 2.5% fetal bovine serum, streptomycin, and penicillin. All cell lines were plated in white walled 96-well plates at 2,000 cells/well or 384-well plates at 500 cells/well, except Lovo, which were plated at 4,000 or 1,000 cells/well, respectively. The cells were incubated in DMSO (control) or a compound for 3 days at 37° C. under 5% C02. A CELLTITER-GLO® reagent (100 μL) was then added to each well. After a 10 min incubation with shaking, luminescence was measured using an ENVISION® multimode plate reader. IC50 values are summarized in Table 1 and percentages of inhibition are summarized in Table 2, where compound T1 is 2-(4-(2-methyl-3,5-diphenylpyrazolo[1,5-a]pyrimidin-7-yl)piperazin-1-yl)ethan-1-ol.

Lovo (G13D) cells = assay: Cell viability assay (CELLTITER-GLO), Lovo cells; conditions: 3 days incubation, 2.5% fetal bovine serum, read-out: Inhibition of Cancerous Cells IC50 (μM) Lovo (G13D)
Method: as §1

SW480 (G12V) cells = assay: Cell viability assay (CELLTITER-GLO), SW480 cells; conditions: 3 days incubation, 2.5% fetal bovine serum, read-out: Inhibition of Cancerous Cells IC50 (μM) SW480 (G12V)
Method: as §1

SW48 (wt) cells = assay: Cell viability assay (CELLTITER-GLO), SW48 cells; conditions: 3 days incubation, 2.5% fetal bovine serum, read-out: Inhibition of Cancerous Cells IC50 (μM) SW48 (wt)
Method: as §1

AsPC-1 (G12D) cells = assay: Cell viability assay (CELLTITER-GLO), AsPC-1 cells; conditions: 3 days incubation, 2.5% fetal bovine serum, read-out: Inhibition of Cancerous Cells IC50 (μM) AsPC-1 (G12D)
Method: as §1

H358 (G12C) cells = assay: Cell viability assay (CELLTITER-GLO), H358 cells; conditions: 3 days incubation, 2.5% fetal bovine serum, read-out: Inhibition of Cancerous Cells IC50 (μM) H358 (G12C)
Method: as §1

T1 sequence (P01116 1-188 isoform P01116-2): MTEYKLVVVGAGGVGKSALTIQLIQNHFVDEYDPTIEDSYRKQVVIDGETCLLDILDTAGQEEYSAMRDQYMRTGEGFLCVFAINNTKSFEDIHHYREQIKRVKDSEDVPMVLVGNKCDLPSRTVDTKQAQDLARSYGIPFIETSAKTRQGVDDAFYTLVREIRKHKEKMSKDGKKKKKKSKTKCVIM

Compound	IC50 (Lovo (G13D) cells; Homo sapiens, 72 h) [µM]	IC50 (SW480 (G12V) cells; Homo sapiens, 72 h) [µM]	IC50 (SW48 (wt) cells; Homo sapiens, 72 h) [µM]	IC50 (AsPC-1 (G12D) cells; Homo sapiens, ASPC1, 72 h) [µM]	IC50 (H358 (G12C) cells; Homo sapiens, NCI-H358, 72 h) [µM]	further results
Cc1nn2c(N3CCN(CCO)CC3)cc(-c3cccc(CCCCCCCN4CCN(C(=O)COc5cccc(N6CCC(=O)NC6=O)c5)CC4)c3)nc2c1-c1ccccc1 [Compound C2, 1-(3-(2-(4-(7-(3-(7-(4-(2-Hydroxyethyl)piperazin-1-yl)-2-methyl-3-phenyl-pyrazolo[1,5-a]pyrimidin-5-yl)phenyl)heptyl)piperazin-1-yl)-2-oxoethoxy)phenyl)dihydro-pyrimidine-2,4(1H,3H)-dione]						Effect on KRAS Protein Degradation, HEK293, 3 μM (KRAS protein): B (a percentage degradation value of less than 50% and no less than 25%)
Cc1nn2c(N3CCN(CCO)CC3)cc(-c3ccccc3)nc2c1-c1cccc(CCCCCN2CCN(C(=O)COc3cccc(N4CCC(=O)NC4=O)c3)CC2)c1 [Compound C10, 1-(3-(2-(4-(5-(3-(7-(4-(2-Hydroxyethyl)piperazin-1-yl)-2-methyl-5-phenyl-pyrazolo[1,5-a]pyrimidin-3-yl)phenyl)pentyl)piperazin-1-yl)-2-oxoethoxy)phenyl)dihydro-pyrimidine-2,4(1H,3H)-dione]						inhibition at 1 µM (Molm-13 cells): 29%; inhibition at 3 µM (Molm-13 cells): 98%
Cc1nn2c(N3CCN(CCO)CC3)cc(-c3cccc(CCCN4CCN(C(=O)CNc5ccc6c(C7CCC(=O)NC7=O)nn(C)c6c5)CC4)c3)nc2c1-c1ccccc1 (stereo not shown) [Compound D1, 3-(6-((2-(4-(3-(3-(7-(4-(2-Hydroxyethyl)piperazin-1-yl)-2-methyl-3-phenyl-pyrazolo[1,5-a]pyrimidin-5-yl)phenyl)propyl)piperazin-1-yl)-2-oxoethyl)amino)-1-methyl-1H-indazol-3-yl)piperidine-2,6-dione]						inhibition at 1 µM (Molm-13 cells): 24%; inhibition at 3 µM (Molm-13 cells): 98%
Cc1nn2c(N3CCN(CCO)CC3)cc(-c3ccccc3)nc2c1-c1cccc(CCCCCCCN2CCN(C(=O)CNc3ccc4c(C5CCC(=O)NC5=O)nn(C)c4c3)CC2)c1 (stereo not shown) [Compound D9, 3-(6-((2-(4-(7-(3-(7-(4-(2-Hydroxyethyl)piperazin-1-yl)-2-methyl-5-phenyl-pyrazolo[1,5-a]pyrimidin-3-yl)phenyl)heptyl)piperazin-1-yl)-2-oxoethyl)amino)-1-methyl-1H-indazol-3-yl)piperidine-2,6-dione]	0.51	0.46	0.72	1.3	1	
Cc1nn2c(N3CCN(CCO)CC3)cc(-c3ccccc3)nc2c1-c1cccc(CCCN2CCN(C(=O)CNc3cccc4c(C5CCC(=O)NC5=O)nn(C)c34)CC2)c1 (stereo not shown) [Compound D10, 3-(7-((2-(4-(3-(3-(7-(4-(2-Hydroxyethyl)piperazin-1-yl)-2-methyl-5-phenyl-pyrazolo[1,5-a]pyrimidin-3-yl)phenyl)propyl)piperazin-1-yl)-2-oxoethyl)amino)-1-methyl-1H-indazol-3-yl)piperidine-2,6-dione]	0.87	0.63	1.3	1.4	2.4	
Cc1nn2c(N3CCN(CCO)CC3)cc(-c3ccccc3)nc2c1-c1cccc(CCCCCN2CCN(C(=O)CNc3ccc4c(N5CCC(=O)NC5=O)nn(C)c4c3)CC2)c1 [Compound D14, 1-(6-((2-(4-(5-(3-(7-(4-(2-Hydroxyethyl)piperazin-1-yl)-2-methyl-5-phenyl-pyrazolo[1,5-a]pyrimidin-3-yl)phenyl)pentyl)piperazin-1-yl)-2-oxoethyl)amino)-1-methyl-1H-indazol-3-yl)dihydropyrimidine-2,4(1H,31H)-dione]						IC50 (Lovo (G13D) cells): 0.62 µM; IC50 (SW480 (G12V) cells): 1.1 µM; IC50 (SW48 (wt) cells): > 10 µM; IC50 (AsPC-1 (G12D) cells): > 10 µM; IC50 (H358 (G12C) cells): 2.2 µM

Second part, led by results:

IC50 (Lovo (G13D) cells; Homo sapiens, 72 h) [µM]	IC50 (SW480 (G12V) cells; Homo sapiens, 72 h) [µM]	IC50 (SW48 (wt) cells; Homo sapiens, 72 h) [µM]	IC50 (AsPC-1 (G12D) cells; Homo sapiens, ASPC1, 72 h) [µM]	IC50 (H358 (G12C) cells; Homo sapiens, NCI-H358, 72 h) [µM]	Compound	further results
0.73	0.48	0.84	1.4	1.2	Cc1nn2c(N3CCN(CCO)CC3)cc(-c3ccccc3)nc2c1-c1cccc(CCCCCN2CCN(C(=O)CNc3cccc4c(C5CCC(=O)NC5=O)nn(C)c34)CC2)c1 (stereo not shown) [Compound D11, 3-(7-((2-(4-(5-(3-(7-(4-(2-Hydroxyethyl)piperazin-1-yl)-2-methyl-5-phenyl-pyrazolo[1,5-a]pyrimidin-3-yl)phenyl)pentyl)piperazin-1-yl)-2-oxoethyl)amino)-1-methyl-1H-indazol-3-yl)piperidine-2,6-dione]	
0.92	0.47	0.96	1.4	1.2	Cc1nn2c(N3CCN(CCO)CC3)cc(-c3ccccc3)nc2c1-c1cccc(CCCCCCCN2CCN(C(=O)CNc3cccc4c(C5CCC(=O)NC5=O)nn(C)c34)CC2)c1 (stereo not shown) [Compound D12, 3-(7-((2-(4-(7-(3-(7-(4-(2-Hydroxyethyl)piperazin-1-yl)-2-methyl-5-phenyl-pyrazolo[1,5-a]pyrimidin-3-yl)phenyl)heptyl)piperazin-1-yl)-2-oxoethyl)amino)-1-methyl-1H-indazol-3-yl)piperidine-2,6-dione]	
0.66	0.76	2	2.3	1.1	Cc1nn2c(N3CCN(CCO)CC3)cc(-c3ccccc3)nc2c1-c1cccc(CCCN2CCN(C(=O)CNc3ccc4c(N5CCC(=O)NC5=O)nn(C)c4c3)CC2)c1 [Compound D13, 1-(6-((2-(4-(3-(3-(7-(4-(2-Hydroxyethyl)piperazin-1-yl)-2-methyl-5-phenyl-pyrazolo[1,5-a]pyrimidin-3-yl)phenyl)propyl)piperazin-1-yl)-2-oxoethyl)amino)-1-methyl-1H-indazol-3-yl)dihydropyrimidine-2,4(1H,3H)-dione]	
0.64	0.56	1.1	1.4	1.3	Cc1nn2c(N3CCN(CCO)CC3)cc(-c3ccccc3)nc2c1-c1cccc(CCCCCCCN2CCN(C(=O)CNc3ccc4c(N5CCC(=O)NC5=O)nn(C)c4c3)CC2)c1 [Compound D15, 1-(6-((2-(4-(7-(3-(7-(4-(2-Hydroxyethyl)piperazin-1-yl)-2-methyl-5-phenyl-pyrazolo[1,5-a]pyrimidin-3-yl)phenyl)heptyl)piperazin-1-yl)-2-oxoethyl)amino)-1-methyl-1H-indazol-3-yl)dihydropyrimidine-2,4(1H,3H)-dione]	
